Data published in patent publication US20030180291A1, “Method of inactivating viruses” (priority 1998, published 2003).
Values joined by “and” are separate entries in the source; they are usually repeats but may differ in a detail not shown here. Identical values can stand only once.

What was measured:
[1] = system: Vesicular Stomatitis (VSV, strain Indiana)
[2] = system: PseudoRabies virus (PSR, strain Bartha K61)
[3] = system: Humane Immunodeficiency Virus Type 1 (HIV-1, strain HTLV-IIIb)
[4] = system: Vesicular Stomatitis virus (VSV); type: cell-based
humane erythrocytes = type: cell-based, human

## Cc1cc(=[N+](C)C)cc2sc3cc(N(C)C)cc(C)c3nc1-2.[Cl-] [DMMB, dimethyl-methylene blue]
[1]
  effective [DMMB]: 4 µM and 5 µM
[2]
  effective [DMMB]: 4 µM
[3]
  effective [DMMB]: 8 µM

## OCCN(CCO)c1nc(N2CCCCC2)c2nc(N(CCO)CCO)nc(N3CCCCC3)c2n1 [dipyridamol]
[4]
  effect of light exposure on virus inactivation in absence of sensitizer: no effect at all
Humane erythrocytes
  haemolysis after the erythrocytes had been stored for 12 days at 4° C.: very strong reduction
[1]
  effect of dipyridamol on the effective concentration of sensitizer: did not, or only barely appear to affect
[2]
  effect of dipyridamol on the effective concentration of sensitizer: did not, or only barely appear to affect
[3]
  effect of dipyridamol on the effective concentration of sensitizer: did not, or only barely appear to affect

## Cc1ncc(COP(=O)(O)O)c(C=O)c1O [pyridoxal phosphate]
[4]
  effect of light exposure on virus inactivation in absence of sensitizer: no effect at all
